The assay relates to skin cancer cell line A431. The assay is described as follows: In vitro survival assay (MTT) for anti-skin cancer effects. Conditions: A-431, A431 human epidermoid carcinoma cell line, 48 hours treatment, read-out: IC50 (half inhibition concentration), survival of skin cancer cells. It is filed as cell-based. Here is the method: Inhibiting effects of skin cancer cells by cyclohexenone compounds of Antrodia camphorata from example 1 were assessed according to the anticancer-drug screening model of National Cancer Institute (NCI). The compound 4-hydroxy-2,3-dimethoxy-6-methyl-5 -(3,7,11-trimethyl-dodeca-2,6,10-trienyl)-cyclohex-2-enone from example 1 was added into the culture media of skin cancer cell line A431 to determine the survival rates. Survival of cell was analyzed using MTT assay. A431 cell line was a human epidermoid carcinoma cell line.
MTT assay is commonly used to analyze cell proliferation, survival rate of viable cells and cytotoxicity. MTT (3[4,5-dimethylthiazol-2-yl]-2,5-diphenyltetrazolium bromide) is a yellow dye which can be converted to water-insoluble purple formazan on the reductive cleavage of its tetrazolium ring by the succinate tetrazolium reductase in mitochondria of cells. The amount of formazan produced is used to detect the number of viable cells and calculate the survival rates. […]
Afterward, 2.5 mg/ml of MTT solution was added to each well and incubated in the dark for 4 hours, followed by the addition of 100 μl of lysis buffer to stop the reaction. The absorbances were measured at 570 nm with an ELISA Reader to determine the survival rates.

The results in this text go back to US20110060057A1, “Inhibition of the Survival of Skin Cancer by Cyclohexenone Compounds from Antrodia Camphorata” (GOLDEN BIOTECHNOLOGY CORPORATION, priority 2009, published 2011).

For `COC1=C(OC)C(O)C(C/C=C(\C)CC/C=C(\C)CCC=C(C)C)C(C)C1=O` (stereo not shown) [formula 2, 4-hydroxy-2,3-dimethoxy-6-methyl-5-(3,7,11-trimethyl-dodeca-2,6,10-trienyl)-cyclohex-2-enone], the IC50 worked out at 0.18 µg/mL.
